“Also recorded” adds a separate entry of the source.
Legend:
[1] = system: tonic extensive convulsion (maximal electroshock-induced seizures); experiment: Activity against maximal electroshock-induced seizures in mice; type: in vivo, mouse (Slc:ddy male mice); settings: oral
Source text: In each group six Slc: ddy male mice weighing 26 to 31 g (5 weeks) were employed. Sixty minutes after oral administration of a test compound, corneal electrodes which were wet by physiological saline were contacted with both eyes of a mouse. Then, appearance of tonic extensive convulsion (TE) caused by electrifying under a stimulation condition of 50 mA, 1000 V and 0.2 sec by means of the apparatus of Woodburg & Davenport (made by Kyoto Keisokuki) was judged as indication.
Each of diphenylhydantoin, the compounds Nos. 2, 4, 5, 6, 7, 50, 51 and 52 of the present invention (refer Table 1, hereinafter the same) and nimodipine was suspended in a 0.5% solution of methyl cellulose to subject the test. Flunarizine was suspended in a 5% solution of gum arabic to subject the test.

[2] = system: decapitation induced hypoxia; experiment: Activity against decapitation induced hypoxia in mice; type: in vivo, mouse (Slc:ddy male mice); settings: oral; for inhibition in vivo at 10 mg/kg / inhibition in vivo at 30 mg/kg / inhibition in vivo at 100 mg/kg: Mus musculus, 1 h, 60 min before decapitation, duration of gasping vs control, read-out: Inhibition rate
Protocol: In each group five Slc:ddy male mice weighing 20 to 22 g (4 weeks) were employed. Sixty minutes after oral administration of a test compound, mice were decapitated with a guillotine. After the decapitation, duration of gasping of head was measured with a timer (CT-916 Type, made by HATTORI SEIKO CO., LTD.) gearing into the guillotine.
Each of test compound was suspended in a 0.5% solution of methyl cellulose and administered. Inhibition rate was calculated by comparing with a 0.5% aqueous solution of methyl cellulose as control. That is, the inhibition rate was calculated by the following formula. [formula]

blood pressure = experiment: Activity for blood pressure in rats; type: in vivo, rat (Wister male rats); settings: oral; for Blood pressure: 100 mg/kg; for activity for decreasing blood pressure (in words): normal rats
Protocol: In each group 4 Wister male rats weighing 200 to 300 g (10 to 15 weeks) were employed. The day before a test, rats were anesthetized with eter, and a polyethylene tube was inserted into aorta abdominalis of a rat. The other end of the polyethylene tube was led out of the rat's body. The led polyethylene tube was connected with a pressure transducer (RM-85, made by Yamamoto Kohden). Blood pressure was measured under a condition of no restriction.

[3] = system: immobility time of forced swimming test; experiment: Activity against immobility time of forced swimming test in mice; type: in vivo, mouse (Slc:ICR male mice); settings: oral
Protocol: In each group 6 Slc:ICR male mice weighing 25 to 32 g (5 weeks) were bred at the room temperature of 22° to 24° C. under an environment of 60% humidity for 1 week, and then the bred mice were subjected to the following test. The test was carried out by monitering action to voluntarily escape with TV camera when a mouse was put into a cylinder of which inner diameter was 11 cm wherein 17 cm of water being the temperature 25° C. as added. As indication immobility time for 6 minutes was measured. In the test mice were employed which were compulsorily swun for 6 minutes in once per day for continuous 3 day. The investigation for immobility time was carried out by measuring immobility time for 6 minutes 1 hour after oral administration of a test compound. Each of test compound was suspended in a 0.5% solution of methyl cellulose used as a control group. Significant difference is shown with the significance level (* : p<0.05) obtained by comparing data of control group by LSD method.

[4] = in vivo; cited from earlier work

Row | Structure (SMILES) | inhibition in vivo at 10 mg/kg [2] [%] | inhibition in vivo at 30 mg/kg [2] [%] | effect on the immobility time (in words) ([3]; 200 mg/kg) | effect on immobility time of forced swimming test (in words) [3] | inhibitory activity against tonic extensive convulsion (share of cases) ([1]; 200 mg/kg) | inhibition in vivo at 100 mg/kg [2] [%] | also measured
1 | C#Cc1cccc(C2C(C(=O)OCC)=C(C)NC(C)=C2C(=O)OC(C)C)c1 (stereo not shown) [Compound No. 4, 5-Ethoxycarbonyl-3-isopropoxycarbonyl-1,4-dihydro-2,6-dimethyl-4-(3-ethynylphenyl)pyridine] | 8.8 | 25.7 | showed the effect on the immobility time | immobility time of forced swimming test reduced |  |  | inhibitory activity against tonic extensive convulsion (share of cases) ([1]; 50 mg/kg): two thirds; inhibitory activity against tonic extensive convulsion (share of cases) ([1]; 100 mg/kg): five sixths; effect in decapitation induced hypoxia (in words) [2]: same extent effect as that of flunarizine; also recorded: stronger effect than that of nimodipine and that of nicardipine; Blood pressure (blood pressure; after 15 min.): 100.1 mmHg; Blood pressure (blood pressure; after 30 min.): 97.2 mmHg; Blood pressure (blood pressure; after 60 min.): 93.4 mmHg; Blood pressure (blood pressure; after 120 min.): 90.5 mmHg; activity for decreasing blood pressure (in words) (blood pressure): very weak activity for decreasing blood pressure; effect on the immobility time (in words) ([3]; 50 mg/kg): showed the effect on the immobility time; effect on the immobility time (in words) ([3]; 100 mg/kg): showed the effect on the immobility time
2 | C#Cc1cccc(C2C(C(=O)OCC)=C(C)NC(C)=C2C(=O)OCCC)c1 (stereo not shown) [Compound No. 5, 5-Ethoxycarbonyl-3-n-propoxycarbonyl-1,4-dihydro-2,6-dimethyl-4-(3-ethynylphenyl)pyridine] |  |  | showed the effect on the immobility time | immobility time of forced swimming test reduced | two thirds |  | 
3 | C#Cc1cccc(C2C(C(=O)OC(C)C)=C(C)NC(C)=C2C(=O)OC(C)C)c1 [Compound No. 6, 3,5-Diisopropoxycarbonyl-1,4-dihydro-2,6-dimethyl-4-(3-ethynylphenyl)pyridine] |  |  | showed the effect on the immobility time | immobility time of forced swimming test reduced | a third |  | 
4 | C#Cc1cccc(C2C(C(=O)OC)=C(C)NC(C)=C2C(=O)OC(C)C)c1 (stereo not shown) [Compound No. 7, 5-Isopropoxycarbonyl-3-methoxycarbonyl-1,4-dihydro-2,6-dimethyl-4-(3-ethynylphenyl)pyridine] |  |  | showed the effect on the immobility time | immobility time of forced swimming test reduced | a third |  | 
5 | C#Cc1cccc(C2C(C(=O)OCC)=C(C)NC(C)=C2C(=O)OCC=C)c1 (stereo not shown) [Compound No. 50, 5-Ethoxycarbonyl-3-allyloxycarbonyl-1,4-dihydro-2,6-dimethyl-4-(3-ethynylphenyl)pyridine] |  |  | showed the effect on the immobility time | immobility time of forced swimming test reduced | all cases | 31.1 | 
6 | C#Cc1cccc(C2C(C(=O)OCC)=C(C)NC(C)=C2C(=O)OCC=CC)c1 (stereo not shown) [Compound No. 51, 5-Ethoxycarbonyl-3-crotyloxycarbonyl-1,4-dihydro-2,6-dimethyl-4-(3-ethynylphenyl)pyridine] |  | 25.7 | showed the effect on the immobility time | immobility time of forced swimming test reduced | all cases | 28.3 | 
7 | C#Cc1cccc(C2C(C(=O)OC)=C(C)NC(C)=C2C(=O)OCC=C(C)C)c1 (stereo not shown) [Compound No. 52, 5-Methoxycarbonyl-3-(3-methyl-2-butenyloxycarbonyl)-1,4-dihydro-2,6-dimethyl-4-(3-ethynylphenyl)pyridine] |  |  | showed the effect on the immobility time | immobility time of forced swimming test reduced | two thirds | 26.4 | 
8 | COC(=O)C1=C(C)NC(C)=C(C(=O)OCCN(C)Cc2ccccc2)C1c1cccc([N+](=O)[O-])c1 (stereo not shown) [Nicardipine, 2-(N-benzyl-N-methylamino)ethyl,methyl 2,6-dimethyl-4-(3-nitrophenyl)-1,4-dihydropyridine-3,5-dicarboxylate hydro chloride, reference compound] | 4.2 | 6.8 |  |  |  |  | Blood pressure (blood pressure; after 15 min.): 100.0 mmHg; Blood pressure (blood pressure; after 30 min.): 67.2 mmHg; Blood pressure (blood pressure; after 60 min.): 69.2 mmHg; Blood pressure (blood pressure; after 120 min.): 67.2 mmHg; activity for decreasing blood pressure (in words) (blood pressure): strong antihypertensive activity; also recorded: remarkable activity for decreasing blood pressure
9 | COC(=O)C1=C(C)NC(C)=C(C(=O)OC)C1c1ccccc1[N+](=O)[O-] [Nifedipine, dimethyl 2,6-dimethyl-4-(2-nitrophenyl)-1,4-dihydropyridine-3,5-dicarboxylate] |  |  |  |  |  |  | vasodepressor activity and coronary vasodilator activity [4]: strong
10 | COCCOC(=O)C1=C(C)NC(C)=C(C(=O)OC(C)C)C1c1cccc([N+](=O)[O-])c1 (stereo not shown) [Nimodipine, isopropyl, 2-methoxyethyl 2,6-dimethyl-4-(3-nitrophenyl)-1,4-dihydropyridine-3,5-dicarboxylate, reference compound] | 2.1 | 9.3 |  | ineffective; also recorded: no effect | No inhibitory activity |  | effect on maximal electroshock-induced seizures (in words) [1]: ineffective
